Our source for the MIC and zone of inhibition values is ChEMBL document CHEMBL4393657, “Tetrazole hybrids and their antifungal activities” (2019).

Converted amounts (≈) assume the structure as drawn.

What all share (type): functional
Assay [1] has as its system Aspergillus flavus. Nature of the assay: Antifungal activity against Aspergillus flavus.
The subject of assay [2] is Candida albicans. Kind of assay: Antifungal activity against Candida albicans.
The test system of assay [3] is Aspergillus niger. Nature of the assay: Antifungal activity against Aspergillus niger.
For another assay, the system named is Mucor indicus. Kind of assay: Antifungal activity against Mucor indicus.
For a further assay, the system named is Rhizopus arrhizus. Nature of the assay: Antifungal activity against Rhizopus arrhizus.
Assay [4] has as its system Candida albicans. Kind of assay: Antifungal activity against Candida albicans NCCS 3471 assessed as inhibition zone at 500 ug/ml by disk diffusion method. Conditions: read-out: IZ. On the technique in general: In agar diffusion tests the substance spreads into inoculated agar from a disc or well.
In assay [5] the test system is Aspergillus niger. Nature of the assay: Antifungal activity against Aspergillus niger NCCS 1196 assessed as inhibition zone at 500 ug/ml by disk diffusion method. The note with it: read-out: IZ.
In assay [6] the test system is Candida albicans. Kind of assay: Antifungal activity against Candida albicans assessed as reduction in fungal cell growth incubated for 24 hrs by broth microdilution method.
Assay [7] has as its system Aspergillus flavus. Kind of assay: Antifungal activity against Aspergillus flavus assessed as inhibition zone at 25 ug/ml by disk diffusion method. The note with it: read-out: IZ.
A further assay concerns Aspergillus fumigatus. Kind of assay: Antifungal activity against Aspergillus fumigatus assessed as inhibition zone at 25 ug/ml by disk diffusion method. Conditions: read-out: IZ.
Assay [8] relates to Aspergillus niger. Nature of the assay: Antifungal activity against Aspergillus niger assessed as inhibition zone at 25 ug/ml by disk diffusion method. The note with it: read-out: IZ.
Assay [9] relates to Candida albicans. Kind of assay: Antifungal activity against Candida albicans assessed as inhibition zone at 25 ug/ml by disk diffusion method. Conditions: read-out: IZ.

A word on the MIC: it is the smallest concentration in the dilution series that meets the test's criterion for growth inhibition. In the case of `Cc1ccc(-n2nnnc2C(=O)CN2CCN(c3nc4c(cc3F)c(=O)c(C(=O)O)cn4C3CC3)CC2)cc1`, the minimum inhibitory concentration (MIC) against Aspergillus flavus [1], against Candida albicans [2], with Aspergillus niger [3], against Mucor indicus and with Rhizopus arrhizus was 6.25 to 100 µg/mL (≈ 11.7 to 188 µM) each time.

As for `COc1ccc(C2(C)OC(Cn3cc(-c4nn(-c5ccncc5)cc4-c4nnnn4-c4ccc(C(F)(F)F)cc4)c4cc(Cl)ccc43)=NN2C(C)=O)cc1` (configuration not stated), the zone of inhibition at 500 µg/mL in the assay with Candida albicans [4] and with Aspergillus niger [5] was 11 to 20 mm throughout.

For the compound `CC(=O)N1N=C(Cn2cc(-c3nn(-c4ccncc4)cc3-c3nnnn3-c3ccc(C(F)(F)F)cc3)c3cc(Cl)ccc32)OC1(C)c1ccc([N+](=O)[O-])cc1` (configuration not stated), the zone of inhibition at 500 µg/mL with Candida albicans [4] and in the assay on Aspergillus niger [5] was 11 to 20 mm each time.

On to `CC(=O)N1N=C(Cn2cc(-c3nn(-c4ccncc4)cc3-c3nnnn3-c3ccc(C(F)(F)F)cc3)c3cc(Cl)ccc32)OC1(C)c1ccc(Cl)cc1` (configuration not stated), for which the zone of inhibition at 500 µg/mL with Candida albicans [4] and in the assay with Aspergillus niger [5] was 11 to 20 mm throughout.

Turning to `O=C(O)c1cn(C2CC2)c2nc(N3CCN(CC(=O)c4nnnn4-c4ccc(Cl)cc4)CC3)c(F)cc2c1=O`, the MIC against Aspergillus flavus [1], in the assay with Candida albicans [2], against Aspergillus niger [3], with Mucor indicus and in the assay on Rhizopus arrhizus was 6.25 to 100 µg/mL (≈ 11.3 to 181 µM) throughout.

For the compound `CC(=O)N1N=C(Cn2cc(-c3nn(-c4ccncc4)cc3-c3nnnn3-c3ccc(C(F)(F)F)cc3)c3cc(Cl)ccc32)OC1(C)c1ccccc1` (configuration not stated), the zone of inhibition at 500 µg/mL in the assay on Candida albicans [4] and with Aspergillus niger [5] was 11 to 20 mm throughout.

Regarding `C[C@@H]1[C@H](O)[C@@H](C)/C=C/C=C/C=C/C=C/C=C/C=C/C=C/[C@H](O[C@@H]2O[C@H](C)[C@@H](O)[C@H](N)[C@@H]2O)C[C@@H]2O[C@](O)(C[C@@H](O)C[C@@H](O)[C@H](O)CC[C@@H](O)C[C@@H](O)CC(=O)O[C@H]1C)C[C@H](O)[C@H]2C(=O)O` [AMPHOTERICIN B], in the assay on Candida albicans [6], the MIC was less than 0.48 µg/mL.

As for `Clc1ccccc1OCc1cn(Cc2ccc(-c3ccccc3-c3nnn[nH]3)cc2)nn1`, the zone of inhibition at 25 µg/mL with Aspergillus flavus [7], with Aspergillus fumigatus, with Aspergillus niger [8] and in the assay with Candida albicans [9] was 11 to 18 mm in each case.

Turning to `Cc1ccc(OCc2cn(Cc3ccc(-c4ccccc4-c4nnn[nH]4)cc3)nn2)cc1`, the zone of inhibition at 25 µg/mL in the assay on Aspergillus flavus [7], with Aspergillus fumigatus, in the assay with Aspergillus niger [8] and in the assay with Candida albicans [9] was 11 to 18 mm each time.

Take `CC(=O)N1N=C(Cn2cc(-c3nn(-c4ccncc4)cc3-c3nnnn3-c3ccc(C(F)(F)F)cc3)c3cc(Cl)ccc32)OC1(C)c1ccc(C)cc1` (configuration not stated): the zone of inhibition at 500 µg/mL in the assay with Candida albicans [4] and in the assay on Aspergillus niger [5] was 11 to 20 mm in each case.

Consider `Cc1ccccc1OCc1cn(Cc2ccc(-c3ccccc3-c3nnn[nH]3)cc2)nn1`, for which the zone of inhibition at 25 µg/mL with Aspergillus flavus [7], with Aspergillus fumigatus, with Aspergillus niger [8] and with Candida albicans [9] was 11 to 18 mm each time.

Turning to `CC(=O)N1N=C(Cn2cc(-c3nn(-c4ccncc4)cc3-c3nnnn3-c3ccc(C(F)(F)F)cc3)c3cc(Cl)ccc32)OC1(C)c1ccc(C(F)(F)F)cc1` (configuration not stated), the zone of inhibition at 500 µg/mL in the assay with Candida albicans [4] and in the assay on Aspergillus niger [5] was 11 to 20 mm each time.

Regarding `FC(F)(F)c1cc(-c2ccc(Br)cc2)nc2nnnn12`, in the assay on Candida albicans [6], the MIC was 62.5 µg/mL (≈ 182 µM).

Turning to `O=[N+]([O-])c1ccc(OCc2cn(Cc3ccc(-c4ccccc4-c4nnn[nH]4)cc3)nn2)cc1`, the zone of inhibition at 25 µg/mL in the assay with Aspergillus flavus [7], in the assay with Aspergillus fumigatus, with Aspergillus niger [8] and with Candida albicans [9] was 11 to 18 mm throughout.

As for `CC(=O)N1N=C(Cn2cc(-c3nn(-c4ccncc4)cc3-c3nnnn3-c3ccc(C(F)(F)F)cc3)c3cc(Cl)ccc32)OC1(C)c1ccc(Br)cc1` (configuration not stated), the zone of inhibition at 500 µg/mL in the assay on Candida albicans [4] and with Aspergillus niger [5] was 11 to 20 mm throughout.
